The source of these data is US20240246934A1, “QUINAZOLINE-BASED COMPOUND, COMPOSITION, AND APPLICATION OF QUINAZOLINE-BASED COMPOUND” (BEIJING SCITECH-MQ PHARMACEUTICALS LIMITED, priority 2021, published 2024).

Read-outs that look alike come from different tables or passages of the source.

Series [1] has as its target T1, HER2 kinase (Homo sapiens, UniProt P04626).
T1 construct: purchased Carna Biosciences 08-016
Put plainly: HER2 kinase assay (ULight/PT66 TR-FRET). Type of series: biochemical. Here is the method:
(§1) Preparation of compound solution: The assay compound was dissolved in DMSO to form a 10 mM stock solution. Prior to use, the compound was diluted to 0.25 mM in DMSO (100 times the final concentration of the diluent) and then subjected to a 3-fold concentration gradient dilution to obtain a total of 11 concentrations. The solution was diluted with buffer to a diluent with 4× the final concentration when the compound was added.
(§2) HER2 kinase assay: buffer was prepared, and 40 nM 4×Her2 kinase solution, 40 μM 4×ATP solution, and 400 nM 4×ULight™-labeled Ploy GT Peptide substrate solution were prepared using the buffer. After the preparation was completed, the enzyme was mixed with different concentrations of compounds pre-prepared by dilution, and the mixture was left to stand at room temperature for 5 min. Each concentration was performed in duplicate. The corresponding substrate and ATP were added and the mixture was reacted at room temperature for 120 minutes (with negative and positive controls). After completion of the reaction, PT66 detection antibody was added. The mixture was incubated at room temperature for 60 minutes, and then detected by Envision.
(§3) Compound concentrations and corresponding inhibition rates were input into GraphPad Prism for processing to calculate IC50 values.

The target of series [2] is EGFR^WT kinase (Homo sapiens, UniProt P00533). Put plainly: EGFR^WT kinase assay (ULight/PT66 TR-FRET). Type of series: biochemical. Here is the method:
as §1
as §2, with “EGFR^WT kinase assay:” for “HER2 kinase assay:”, “prepared, and 3.48 nM 4×EGFR” for “prepared, and 40 nM 4×Her2”, “3.48 nM 4×EGFR kinase solution,” for “40 nM 4×Her2 kinase solution,”, “kinase solution, 600 μM 4×ATP” for “kinase solution, 40 μM 4×ATP”, “nM 4×ULight™-labeled JAK-1 (Try1023) Peptide substrate” for “nM 4×ULight™-labeled Ploy GT Peptide substrate”
as §3

Series [3] concerns the target Ba/F3 HER2 A775_G776insYVMA cells (Homo sapiens, UniProt P04626, DUP772-775, cells depend on it). Put plainly: Inhibition of cell proliferation, CTG method, Ba/F3 HER2 A775_G776insYVMA. Type of series: cell-based. The settings on record: 72 hours, read-out: Ba/F3 HER2 A775-G776insYVMA IC50. An excerpt:
The present application examined the in vitro anti-proliferative activity of the compounds of the present disclosure against in vitro cultured BT474, NCI-N87, Ba/F3-EGFR-VIII and Ba/F3 HER2 A775_G776insYVMA and Ba/F3 EGFR D770_N771insSVD cell lines by CTG method.
Cell lines: BT474 (from the cell bank of Chinese Academy of Sciences), NCI-N87 (from ATCC), Ba/F3-EGFR-VIII, Ba/F3 HER2 A775_G776insYVMA and Ba/F3 EGFR D770_N771insSVD (all from KYinno Biotechnology (Beijing) Co., Ltd.); all of the above cells were cultured with RPMI1640 medium containing 10% fetal bovine serum, 100 U/mL penicillin, and 100 μg/mL streptomycin in the culture process.
1. The assay compound was dissolved with DMSO to form a stock solution and a gradient dilution was performed, followed by dilution with the corresponding medium to obtain a solution with 5-fold working concentration.
2. Cells in logarithmic growth phase were adjusted to specific cell densities by dilution with culture medium, and 80 μL of cell suspension was added to a 96-well plate, such that plating densities of cells of BT474, NCI-N87, Ba/F3-EGFR-VIII, Ba/F3 HER2 A775_G776insYVMA and Ba/F3 EGFR D770_N771insSVD were all 3000 cells/well. The cells of Ba/F3-EGFR-VIII, Ba/F3 HER2 A775_G776insYVMA and Ba/F3 EGFR D770_N771insSVD were used directly in the next step (treatment with compound), whereas the BT474 and NCI-N87 needed to be cultured overnight in a 37° C., 5% carbon dioxide gas incubator to adhere to the wall, and then treated with compounds.
3. […] The highest concentration of the assayed compound was 10 μM, 4-fold serial dilution, a total of 9 concentrations, and duplicate wells. A control group without compound was also set up.
4. The cells were cultured for another 72 hours, and then cell viability was detected by CTG assay kit. Signal values were read with a multifunctional plate reader (Perkin Elmer). GraphPad Prism software was used to create a dose-response curve and IC50 was calculated.

The subject of series [4] is Ba/F3 ERBB2 A775_G776insYVMA. In words: Efficacy in nude mouse tumor-bearing model of Ba/F3 ERBB2 A775_G776insYVMA. In kind it is in vivo, BALB/c nude mice. The settings on record: 30 mg/kg. Here is the method: In this assay, some compounds of the application were orally administered to a nude mouse tumor-bearing model of Ba/F3 ERBB2 A775_G776insYVMA to study the effect of the compounds of the application on tumor growth.
Preparation of the assay compound: an appropriate weight of the compound to be assayed was weighed, and completely dissolved in an appropriate volume of vehicle (DMSO). The mixture was vortexed or sonicated. Then an appropriate amount of Solutol was added and mixed well. Finally, sterilized drinking water was added and the mixture was mixed by stirring or vortexing to obtain a homogeneous solution or suspension.
Method: All the assays were authorized and agreed by the Animal Welfare Committee. Ba/F3 ERBB2 A775_G776insYVMA in a logarithmic growth period was inoculated subcutaneously into the right back of immunodeficient nude mice (BALB/c nude, female, 6-7 weeks of age, body weight 18±2 g) with 4×10^6 cells/rat. After the tumor grew to 150-200 mm^3, the animals were randomly divided into a treatment group and a control group. For the treatment group, a solution of each assay compound was given, and for the control group, a vehicle solution without the assay compound was given. Both of the treatment group and the control group were administered once a day for about 2 weeks. The dose of each assay article was 30 mg/kg (in terms of effective compound concentration), and the assay compounds were all prepared freshly for use. During the assay, the diameter of loaded tumors was measured twice a week, and the mice were weighed at the same time. The tumor volume (TV) was calculated by the formula: TV=½×a×b^2, where a and b denote length and width, respectively. Relative tumor volume (RTV) was calculated based on the measured results by the formula: RTV=Vt/V0, where V0 is the tumor volume measured at grouping and administration and Vt is the tumor volume at each measurement. The evaluation index of antitumor activity was the relative tumor proliferation rate T/C (%) calculated by the formula: T/C (%)=(TRTV/CRTV)×100%, TRTV: RTV of the administration group; CRTV: RTV of the control group. T and C denote the average tumor volume at a certain time point in the administration group and the control group, respectively.

Series [5] is described as follows: Pharmacokinetics in SD rats, single intravenous injection and oral administration. Type of series: in vivo, SD rat. The settings on record: for AUC(0-inf) / AUC(0-t) / Vd / half-life / bioavailability / Cmax / Tmax: SD, rat, whole blood; for bioavailability: PO 10 mg/kg vs IV 3 mg/kg, read-out: F % (bioavailability). Here is the method: In this assay, the pharmacokinetic characteristics of the compounds of the present application were assayed after administration of some of the compounds of the present application to SD rats by single oral administration and intravenous injection. 1. […] The mixture was stirred, vortexed and/or sonicated. Once a solution was obtained, the vehicle was gradually added to a final volume to reach the target concentration. The solution was vortexed, and sonicated to obtain a homogeneous solution. The solution was filtered through a 0.22 μm PVDF membrane. 2. […] The mixture was stirred, vortexed and/or sonicated. Once a solution was obtained, the vehicle was gradually added to a final volume to reach the target concentration. The solution was vortexed, and sonicated to obtain a homogeneous solution. […] Meanwhile, the IV group was not fasted and the PO group was fasted overnight (>12 hrs) and given food 2 hrs after drug administration. All animals had free access to water. The dosing regimen and pharmacokinetic sampling regimen are given in Table 6 and Table 7 below, respectively. […] Rats were administered according to the above regimen, and blood and brain tissue samples were collected and processed at predetermined time points (collection and processing were performed according to conventional methods in the art). […] The supernatant was diluted 2-fold with ultra-pure water, and the samples were analyzed by LC/MS. Pharmacokinetic parameters was calculated using WinNonlin software. The following pharmacokinetic parameters was calculated from the plasma drug concentration-time data: CL (clearance); Vd (apparent volume of distribution); T1/2 (elimination half-life time); Cmax (peak concentration); Tmax (time to peak); AUC (area under plasma drug concentration-time curve); MRT (mean retention time); F % (bioavailability).

A short description of series [6]: Brain tissue and whole blood concentration in SD rats after oral administration. Type of series: in vivo. The conditions noted are these: rat, PO 10 mg/kg, 2 h after administration. Here is the method: In this assay, the pharmacokinetic characteristics of the compounds of the present application were assayed after administration of some of the compounds of the present application to SD rats by single oral administration and intravenous injection.
2. […] The mixture was stirred, vortexed and/or sonicated. Once a solution was obtained, the vehicle was gradually added to a final volume to reach the target concentration. The solution was vortexed, and sonicated to obtain a homogeneous solution.
Meanwhile, the IV group was not fasted and the PO group was fasted overnight (>12 hrs) and given food 2 hrs after drug administration. All animals had free access to water. The dosing regimen and pharmacokinetic sampling regimen are given in Table 6 and Table 7 below, respectively.
Rats were administered according to the above regimen, and blood and brain tissue samples were collected and processed at predetermined time points (collection and processing were performed according to conventional methods in the art).
The supernatant was diluted 2-fold with ultra-pure water, and the samples were analyzed by LC/MS.
Brain tissues were weighed and homogenized by adding 4-fold homogenizing solution (acetonitrile/water=1/1 v/v). […] The supernatant was diluted 2-fold with ultra-pure water, and the samples were analyzed by LC/MS.

[7] abbreviates: NA: Exposure was too low to be counted.
Where [8] appears, read: PO 10 mg/kg, NA: Exposure was too low to be counted.

Sequence of EGFR^WT kinase (P00533 25-1210): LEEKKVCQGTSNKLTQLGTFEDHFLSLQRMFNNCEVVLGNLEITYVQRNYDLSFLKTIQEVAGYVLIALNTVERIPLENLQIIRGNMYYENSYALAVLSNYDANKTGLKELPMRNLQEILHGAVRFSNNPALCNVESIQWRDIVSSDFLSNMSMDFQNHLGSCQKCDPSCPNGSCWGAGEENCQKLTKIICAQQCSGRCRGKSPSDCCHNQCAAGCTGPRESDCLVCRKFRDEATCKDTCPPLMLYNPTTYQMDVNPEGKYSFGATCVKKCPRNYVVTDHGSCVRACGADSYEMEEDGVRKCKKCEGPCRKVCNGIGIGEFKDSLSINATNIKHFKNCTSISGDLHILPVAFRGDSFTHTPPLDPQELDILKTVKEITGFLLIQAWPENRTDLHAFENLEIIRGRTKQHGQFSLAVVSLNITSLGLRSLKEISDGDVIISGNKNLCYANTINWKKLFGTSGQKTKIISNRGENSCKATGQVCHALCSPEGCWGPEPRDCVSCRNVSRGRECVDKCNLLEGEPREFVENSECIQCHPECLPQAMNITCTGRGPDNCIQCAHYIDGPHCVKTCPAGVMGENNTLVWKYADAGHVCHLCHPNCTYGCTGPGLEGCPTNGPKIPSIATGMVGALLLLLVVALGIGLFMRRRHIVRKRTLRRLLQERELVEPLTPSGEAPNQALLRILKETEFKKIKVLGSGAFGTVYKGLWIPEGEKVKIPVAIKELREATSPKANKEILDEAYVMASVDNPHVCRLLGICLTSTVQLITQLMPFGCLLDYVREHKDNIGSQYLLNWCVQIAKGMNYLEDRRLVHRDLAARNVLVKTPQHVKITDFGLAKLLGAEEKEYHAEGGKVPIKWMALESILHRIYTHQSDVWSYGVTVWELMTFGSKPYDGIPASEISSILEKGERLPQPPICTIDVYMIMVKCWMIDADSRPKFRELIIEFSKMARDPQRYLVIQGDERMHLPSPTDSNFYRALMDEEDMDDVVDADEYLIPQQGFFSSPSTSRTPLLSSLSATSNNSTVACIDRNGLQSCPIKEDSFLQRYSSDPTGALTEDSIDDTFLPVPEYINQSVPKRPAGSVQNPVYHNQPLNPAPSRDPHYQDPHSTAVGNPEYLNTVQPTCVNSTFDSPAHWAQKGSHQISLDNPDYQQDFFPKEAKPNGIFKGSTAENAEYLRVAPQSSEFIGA
T1 sequence (P04626 23-1255): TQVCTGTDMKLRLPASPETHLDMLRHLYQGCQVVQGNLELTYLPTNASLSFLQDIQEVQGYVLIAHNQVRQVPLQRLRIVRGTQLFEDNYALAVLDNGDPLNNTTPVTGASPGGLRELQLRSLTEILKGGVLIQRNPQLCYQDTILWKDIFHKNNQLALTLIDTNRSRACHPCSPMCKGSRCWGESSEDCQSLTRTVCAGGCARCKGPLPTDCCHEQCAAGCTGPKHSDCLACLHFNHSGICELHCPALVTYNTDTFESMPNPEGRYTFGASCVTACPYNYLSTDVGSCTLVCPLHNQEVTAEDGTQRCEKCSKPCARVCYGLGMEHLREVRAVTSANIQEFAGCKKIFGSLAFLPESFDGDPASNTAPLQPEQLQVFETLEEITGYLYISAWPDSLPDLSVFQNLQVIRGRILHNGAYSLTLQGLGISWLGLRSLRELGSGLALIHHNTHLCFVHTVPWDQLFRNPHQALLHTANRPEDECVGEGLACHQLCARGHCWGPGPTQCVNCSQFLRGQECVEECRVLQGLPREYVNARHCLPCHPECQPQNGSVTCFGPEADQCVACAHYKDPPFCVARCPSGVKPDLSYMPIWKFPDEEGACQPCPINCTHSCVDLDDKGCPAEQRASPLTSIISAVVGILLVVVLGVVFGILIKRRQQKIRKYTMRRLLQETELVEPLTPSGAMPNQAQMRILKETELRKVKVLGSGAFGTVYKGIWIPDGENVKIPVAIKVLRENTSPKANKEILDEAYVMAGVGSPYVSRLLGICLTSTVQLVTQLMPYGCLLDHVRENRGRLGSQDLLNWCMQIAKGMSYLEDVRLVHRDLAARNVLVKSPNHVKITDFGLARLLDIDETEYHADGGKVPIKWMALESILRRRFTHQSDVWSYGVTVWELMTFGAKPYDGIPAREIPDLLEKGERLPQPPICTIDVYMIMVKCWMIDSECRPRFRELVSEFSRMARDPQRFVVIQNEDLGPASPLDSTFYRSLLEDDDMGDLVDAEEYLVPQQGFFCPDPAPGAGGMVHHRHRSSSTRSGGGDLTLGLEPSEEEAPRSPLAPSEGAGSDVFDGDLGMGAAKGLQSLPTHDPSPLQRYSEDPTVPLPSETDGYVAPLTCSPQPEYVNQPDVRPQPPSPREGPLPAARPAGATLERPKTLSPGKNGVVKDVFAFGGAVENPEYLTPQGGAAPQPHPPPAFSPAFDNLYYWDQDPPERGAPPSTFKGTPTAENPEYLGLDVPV
Sequence of Ba/F3 HER2 A775_G776insYVMA cells (P04626 with tags, fused parts or gaps DUP772-775): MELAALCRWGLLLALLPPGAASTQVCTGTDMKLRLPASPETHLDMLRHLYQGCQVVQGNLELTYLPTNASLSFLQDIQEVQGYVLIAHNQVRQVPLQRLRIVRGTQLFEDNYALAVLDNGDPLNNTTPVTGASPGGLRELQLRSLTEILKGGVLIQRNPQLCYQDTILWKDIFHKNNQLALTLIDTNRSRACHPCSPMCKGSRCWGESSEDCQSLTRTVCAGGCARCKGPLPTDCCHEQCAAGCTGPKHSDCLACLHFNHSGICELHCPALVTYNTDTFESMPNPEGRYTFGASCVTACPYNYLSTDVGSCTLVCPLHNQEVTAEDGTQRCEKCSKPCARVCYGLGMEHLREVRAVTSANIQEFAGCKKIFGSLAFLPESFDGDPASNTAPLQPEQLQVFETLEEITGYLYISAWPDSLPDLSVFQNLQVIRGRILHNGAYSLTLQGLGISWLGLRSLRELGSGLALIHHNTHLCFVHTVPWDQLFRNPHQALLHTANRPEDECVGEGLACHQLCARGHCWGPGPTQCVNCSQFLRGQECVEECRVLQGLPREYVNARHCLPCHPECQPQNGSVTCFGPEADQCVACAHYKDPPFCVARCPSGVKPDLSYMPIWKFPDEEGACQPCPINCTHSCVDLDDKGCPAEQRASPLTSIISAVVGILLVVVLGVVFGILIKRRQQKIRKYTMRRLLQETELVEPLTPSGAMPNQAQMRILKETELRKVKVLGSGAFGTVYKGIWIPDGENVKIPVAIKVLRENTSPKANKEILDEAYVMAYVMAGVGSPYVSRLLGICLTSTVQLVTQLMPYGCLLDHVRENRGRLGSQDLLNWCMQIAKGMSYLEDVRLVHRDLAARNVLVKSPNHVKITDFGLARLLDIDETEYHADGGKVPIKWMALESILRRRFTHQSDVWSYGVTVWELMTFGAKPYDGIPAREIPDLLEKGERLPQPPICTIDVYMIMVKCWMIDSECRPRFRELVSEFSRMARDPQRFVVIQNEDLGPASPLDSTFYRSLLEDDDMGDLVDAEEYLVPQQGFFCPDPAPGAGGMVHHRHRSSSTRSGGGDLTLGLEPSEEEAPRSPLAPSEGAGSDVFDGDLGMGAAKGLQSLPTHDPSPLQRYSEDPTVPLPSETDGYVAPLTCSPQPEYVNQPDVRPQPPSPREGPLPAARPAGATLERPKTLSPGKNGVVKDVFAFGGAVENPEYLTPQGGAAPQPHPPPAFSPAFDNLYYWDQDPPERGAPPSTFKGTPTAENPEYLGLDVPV

`CN1CCC[C@@H]1/C=C/C(=O)Nc1ccc2ncnc(Nc3ccc(OCc4ccccn4)c(Cl)c3)c2c1OCC(F)F` [Example 11, (R,E)-N-(4-((3-chloro-4-(pyridin-2-ylmethoxy)phenyl)amino)-5-(2,2-difluoroethoxy)quinazolin-6-yl)-3-(1-methylpyrrolidin-2-yl)acrylamide]: the IC50 in series [1] and in series [2] was < 10 nM throughout. Further, in series [3], the GI50 lay in the range of 1 to 5 nM. Besides, in series [4] (QD×15, PO, day 15), the “T/C (%)” value stood at 5.71%.

Take `CCCOc1c(NC(=O)/C=C/[C@H]2CCCN2C)ccc2ncnc(Nc3ccc(OCc4ccccn4)c(Cl)c3)c12` [Example 13, (R,E)-N-(4-((3-chloro-4-(pyridin-2-ylmethoxy)phenyl)amino)-5-propoxyquinazolin-6-yl)-3-(1-methylpyrrolidin-2-yl)acrylamide]: the half-inhibitory concentration (IC50) in series [1] was < 10 nM. Besides, in series [2], the IC50 was < 10 nM. Moreover, in series [3], the GI50 fell in the range of 1 to 5 nM. Further, in series [5] (IV 3 mg/kg), the Cl_obs is on record as 52.3 ± 5.7 mL/min/kg, the AUC(0-inf) was 964 ± 104 ng·h/mL, the AUC(0-t) stood at 953 ± 105 ng·h/mL and the Vd stood at 18.7 ± 2.9 L/kg. In series [5] (IV 3 mg/kg), the half-life was 4.12 ± 0.22 h. Further, the bioavailability in series [5] (setting [7]) turned out to be 23.3 ± 7.4%. Besides, in series [5] (setting [8]), the AUC(0-inf) was 750 ± 238 ng·h/mL, the AUC(0-t) amounted to 719 ± 233 ng·h/mL, the Cmax is 53.7 ± 12.4 ng/mL and the Tmax came out at 2 h. Besides, in series [5] (setting [8]), the half-life is 5.42 ± 0.34 h. In series [6] (whole blood, read-out: Blood drug concentration), the concentration at 2 h was determined as 273 ng/mL. In series [6] (brain / whole blood, read-out: Brain tissue/blood ratio), the Kp at 2 h amounted to 0.465. In addition, in series [6] (brain, NA: Exposure was too low to be counted, read-out: Brain tissue concentration), the concentration at 2 h turned out to be 127 ng/g.

As to `CN1CCC[C@H]1/C=C/C(=O)Nc1ccc2ncnc(Nc3ccc(OCc4ccccn4)c(Cl)c3)c2c1` [Control compound 2, reference compound], in series [5] (IV 3 mg/kg), the Cl_obs stood at 84.3 ± 5.1 mL/min/kg, the AUC(0-inf) was found to be 595 ± 37 ng·h/mL, the AUC(0-t) stood at 565 ± 40 ng·h/mL and the Vd was determined as 47.5 ± 7.5 L/kg. Besides, the half-life in series [5] (IV 3 mg/kg) was 6.5 ± 0.78 h. In series [5] (setting [7]), the bioavailability amounted to 0.992%. In addition, in series [5] (setting [8]), the total exposure AUC(0-inf) came out at 23.8 ng·h/mL, the AUC(0-t) amounted to 18.7 ng·h/mL, the Cmax amounted to 6.72 ng/mL and the Tmax was 0.25 h. The half-life in series [5] (setting [8]) is 2.39 h. The “oral absorption (in words)” value in series [5] (administrated orally) was “hardly absorbed”. In series [6] (in vivo, whole blood, read-out: Blood drug concentration), the concentration at 2 h is 1.14 ng/mL.

Turning to `[2H]C([2H])([2H])Oc1c(NC(=O)/C=C/[C@H]2CCCN2C)ccc2ncnc(Nc3ccc(OCc4ccccn4)c(Cl)c3)c12` [Example 33, (R,E)-N-(4-((3-chloro-4-(pyridin-2-ylmethoxy)phenyl)amino)-5-(methoxy-d3)quinazolin-6-yl)-3-(1-methylpyrrolidin-2-yl)acrylamide], the IC50 in series [1] and in series [2] was < 10 nM each time. The GI50 in series [3] is < 1 nM. In series [4] (QD×11, PO, day 11), the “T/C (%)” value worked out at 12.4%.
